For the assay, the target named is T1, Isocitrate lyase (Icl) (Paracoccus denitrificans, UniProt A1B1S0).
T1 construct: gene Pden_1363; Recombinant His6-tagged Icl (Pden_1363)
T1 sequence (A1B1S0 1-535): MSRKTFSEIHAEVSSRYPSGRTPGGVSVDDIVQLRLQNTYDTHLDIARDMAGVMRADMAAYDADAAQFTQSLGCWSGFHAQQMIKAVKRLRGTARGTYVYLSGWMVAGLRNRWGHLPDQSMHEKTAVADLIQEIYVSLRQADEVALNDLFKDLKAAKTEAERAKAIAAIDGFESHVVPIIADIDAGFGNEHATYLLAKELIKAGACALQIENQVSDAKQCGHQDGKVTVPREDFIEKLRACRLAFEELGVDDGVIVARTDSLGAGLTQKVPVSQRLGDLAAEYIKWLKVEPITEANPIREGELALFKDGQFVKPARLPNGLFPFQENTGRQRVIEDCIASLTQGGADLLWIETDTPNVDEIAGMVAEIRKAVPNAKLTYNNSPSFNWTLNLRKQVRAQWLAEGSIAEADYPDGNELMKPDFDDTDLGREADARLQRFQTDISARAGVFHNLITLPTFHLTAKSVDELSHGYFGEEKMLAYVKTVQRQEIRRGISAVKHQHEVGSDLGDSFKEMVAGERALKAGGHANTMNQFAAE
As to the kind of experiment: spectrophotometric phenylhydrazine-glyoxylate assay with purified enzyme, […] min preincubation with 3-NPA at […]°C. It is filed as biochemical.

As a reminder, the IC50 is the concentration needed to halve the response being measured.

Turning to `O=C(O)CC[N+](=O)[O-]` [3-NPA, 3-nitropropionate], 34 µM corresponded to half-maximal inhibition (IC50).
